Assay results reported in article PMC6222779, “Enzyme-Site Blocking Combined with Optimization of Molecular Docking for Efficient Discovery of Potential Tyrosinase Specific Inhibitors from Puerariae lobatae Radix” (Molecules : A Journal of Synthetic Chemistry and Natural …, 2018).
Read-outs that look alike come from different tables or passages of the source.

Assays:
[1] = biological target: T1, TYR (Agaricus bisporus, UniProt C7FF04); assay: TYR inhibit assay (spectrophotometry, L-tyrosine substrate); assay type: biochemical; set-up: purchased Sigma-Aldrich
Protocol: TYR inhibition by PLR extract solution, selected compounds and Kojic acid was analyzed by spectrophotometry. The solution comprised 50 µL of the mixed ligand solution (the corresponding ligand standards were diluted 50-fold with PBS) incubated with 50 µL TYR solution (0.1 U/mL ) for 30 min at room temperature, followed by the addition of 100 µL L-tyrosine (0.4 mM) and incubation for another 30 min at 30 °C. Absorbance was measured in triplicate at 480 nm and inhibition ratios were calculated from the mean of the triplicate observations according to Equation (2):(2) Inhibitory Ratio (%) = Ab−Ae/Ab × 100%, where Ab and Ae represented the absorption of blank groups and experiment groups, respectively.
Target sequence in this assay (C7FF04 1-392): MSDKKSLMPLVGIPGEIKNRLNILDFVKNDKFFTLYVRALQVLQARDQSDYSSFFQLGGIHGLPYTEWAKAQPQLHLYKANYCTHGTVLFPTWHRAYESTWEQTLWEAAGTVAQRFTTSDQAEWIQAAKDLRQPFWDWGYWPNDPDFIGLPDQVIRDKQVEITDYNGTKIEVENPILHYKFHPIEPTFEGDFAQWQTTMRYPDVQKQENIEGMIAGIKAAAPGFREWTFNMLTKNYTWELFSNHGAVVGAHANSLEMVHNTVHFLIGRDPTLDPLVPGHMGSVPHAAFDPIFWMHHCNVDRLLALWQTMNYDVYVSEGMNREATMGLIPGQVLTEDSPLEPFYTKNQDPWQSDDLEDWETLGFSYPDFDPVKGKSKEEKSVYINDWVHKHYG

[2] = biological target: T1, TYR; assay: TYR-site blocking affinity ultrafiltration screening with HPLC; conditions: specific ligand when (Ab − Ae)/Ab ≥ 50% and (Ac − Ae)/Ac ≥ 50%; TYR 0.1 mg/mL, 30 °C, 30 min, 5000× g; peaks of PLR extract
Target sequence in this assay (C7FF04 1-392 limits assumed): as the sequence (C7FF04 1-392) above
Protocol: PLR-extract solution (100 µL) mixed with 100 µL diluted TYR solution and incubated at the best UF parameters. The unbound compounds can pass through the ultrafiltration membrane into the filtrates (F1), whereas the enzyme-ligand complexes remained in the chamber. After washing the retained complexes twice with 200 µL PBS (pH 6.8) to remove the residual unbound compounds, 200 µL methanol (80% (v/v)) was added into chamber and ultrasonic for 15 min to disrupt the complexes and release the ligands. The mixture was then centrifuge at 5000× g for 15 min, the filtrates (F2) containing the selected compounds were passed through a 0.45 µm filter membrane prior to HPLC analysis. For blank groups, PBS (pH 6.8) containing 2% DMSO was used to incubate with the TYR solution, followed by performance of the protocol described here. All experiments were performed in triplicate.
The PLR extract solution was added to the reaction solution and the protocol described in Section 2.5 was followed prior to HPLC analysis. All experiments were performed in triplicate.

[3] = TYR inhibitory activity, L-tyrosine 0.4 mM, absorbance at 480 nm, triplicate, read-out: IC50 ± SD

Structure (SMILES) | IC50 [1] | binding to TYR in ultrafiltration with kojic acid site blocking [2] | IC50 [1, 3]
O=c1c(-c2ccc(O)cc2)coc2cc(O[C@@H]3O[C@H](CO)[C@@H](O)[C@H](O)[C@H]3O)ccc12 [Daidzin, daidzin] | > 500 µM | potential specific TYR ligands | –
O=c1c(-c2ccc(O)cc2)coc2cc(O[C@@H]3O[C@H](CO)[C@@H](O)[C@H](O)[C@H]3O)cc(O)c12 [Genistin, genistin] | – | potential specific TYR ligands | > 500 µM
O=c1c(-c2ccc(O)cc2)coc2c(C3OC(COC4OCC(O)(CO)C4O)C(O)C(O)C3O)c(O)ccc12 (stereo not shown) [Mirificin, mirificin] | – | potential specific TYR ligands | 12.7 ± 2.77 µM
O=c1c(-c2ccc(O)cc2)coc2c([C@@H]3O[C@H](CO)[C@@H](O)[C@H](O)[C@H]3O)c(O)ccc12 [Puerarin, puerarin] | 9.83 ± 1.45 µM | potential specific TYR ligands | –
O=c1c(-c2ccc(O)cc2)coc2c(C3OC(COC4OCC(O)(CO)C4O)C(O)C(O)C3O)c(O)cc(O)c12 (stereo not shown) [compound 7, genistein-8-C-apiosyl(16)-glucoside] | – | not recognized as specific TYR inhibitors | –
COc1ccc2c(c1)OC(=O)C=C(c1ccc(O)cc1)C(OC1OC(CO)C(O)C(O)C1O)C2 (stereo not shown) [compound 11, sophoroside A] | – | not recognized as specific TYR inhibitors | –
